Experiment [1] has as its target T1, Gag-Pol polyprotein [489-587] (Human immunodeficiency virus 1, UniProt P04585).
T1 construct: 489-587
In words: Protease Inhibition Assay. On the procedure:
(§1) Sensitivity of HIV-1 protease activity to protease inhibitors was determined by a peptide substrate cleavage assay. Protease products were analyzed on a reverse-phase high-pressure liquid chromatograph.

Experiment [2] concerns the target T2, Dimer of Gag-Pol polyprotein [489-587] (Human immunodeficiency virus 1, UniProt P12497).
T2 construct: 489-587
In words: Protease Inhibition Assay. On the procedure:
as §1

Molecules are shown by their SMILES. pIC50, pKi: −log10 of the molar value.

As to `CCNS(=O)(=O)Oc1cc(C(C)(C)C)c(SC2C(=O)CC(CCc3ccccc3)(C(C)C)OC2=O)cc1C` (centres undefined), the negative logarithm of the IC50 (pIC50) – broadly, the IC50 on a negative log10 scale, so that one unit is a factor of ten – in experiment [1] is 8.05.

On to `Cc1cc(SC2C(=O)CC(CCc3ccc(O)cc3)(C3CCCCC3)OC2=O)c(C(C)(C)C)cc1OS(=O)(=O)Cn1ccnc1` (centres undefined), for which the negative-log IC50 (pIC50) in experiment [1] was 8.10.

In turn, `Cc1cc(SC2C(=O)CC(C)(CCc3ccc(O)cc3)OC2=O)c(C(C)(C)C)cc1OS(=O)(=O)Cn1ccnc1` (centres undefined) had a pIC50 in experiment [1] of 8.70.

As for `Cc1cc(SC2C(=O)CC(CCc3ccc(O)cc3)(C(C)C)OC2=O)c(C(C)(C)C)cc1OS(=O)(=O)Cn1ccnc1` (centres undefined), the negative logarithm of the IC50 (pIC50) in experiment [1] was 8.62.

In turn, `Cc1cc(SC2C(=O)CC(CCc3ccccc3)(C(C)C)OC2=O)c(C(C)(C)C)cc1OS(=O)(=O)Cn1ccnc1` (centres undefined) had a negative-log IC50 (pIC50) in experiment [1] of 8.52.

`Cc1cc(SC2C(=O)CC(C)(CCc3ccc(O)cc3)OC2=O)c(C(C)(C)C)cc1NS(=O)(=O)Cn1ccnc1` (centres undefined) gave a pIC50 in experiment [1] of 8.72.

Consider `Cc1cc(SC2C(=O)CC(CCc3ccc(N)cc3)(C(C)C)OC2=O)c(C(C)(C)C)cc1OS(=O)(=O)c1cccs1` (centres undefined), for which, in experiment [1], the pIC50 was 7.73.

Consider `CCCC1(CCc2ccc(O)cc2)CC(=O)C(Sc2cc(C)c(OS(=O)(=O)Cn3ccnc3)cc2C(C)(C)C)C(=O)O1` (centres undefined), for which, in experiment [1], the negative logarithm of the IC50 (pIC50) is 8.66.

`Cc1cc(SC2C(=O)CC(CCc3ccc(O)cc3)(CC(C)C)OC2=O)c(C(C)(C)C)cc1OS(=O)(=O)Cn1ccnc1` (centres undefined) gave a pIC50 in experiment [1] of 8.44.

For `Cc1cc(SC2C(=O)CC(CCc3ccccc3)(C(C)C)OC2=O)c(C(C)(C)C)cc1NS(=O)(=O)Cn1ccnc1` (centres undefined), in experiment [1], the negative logarithm of the IC50 (pIC50) is 8.72.

With `Cc1cc(SC2C(=O)CC(C)(CCc3ccc(O)cc3)OC2=O)c(C(C)(C)C)cc1NS(=O)(=O)c1ccc(-c2cccs2)cc1` (centres undefined), in experiment [1], the pIC50 was 8.20.

Turning to `Cc1cc(SC2C(=O)CC(CCc3ccc(N)cc3)(C(C)C)OC2=O)c(C(C)(C)C)cc1OS(=O)(=O)Cn1ccnc1` (centres undefined), the negative logarithm of the IC50 (pIC50) in experiment [1] is 8.66.

`Cc1cc(SC2C(=O)CC(CCc3ccc(N)cc3)(C(C)C)OC2=O)c(C(C)(C)C)cc1OS(=O)(=O)c1cccnc1` (centres undefined) gave a negative logarithm of the IC50 (pIC50) in experiment [1] of 8.39.

`Cc1cc(SC2C(=O)CC(CCc3ccc(N)cc3)(C(C)C)OC2=O)c(C(C)(C)C)cc1OS(=O)(=O)c1nccn1C` (centres undefined) [4-({6-[2-(4-aminophenyl)ethyl]-4-hydroxy-2-oxo-6-(propan-2-yl)-5,6-dihydro-2H-pyran-3-yl}sulfanyl)-5-tert-butyl-2-methylphenyl 1-methyl-1H-imidazole-2-sulfonate] had a negative logarithm of the IC50 (pIC50) in experiment [2] of 8.66.

With `Cc1cc(SC2C(=O)CC(CCc3ccc(N)cc3)(C(C)C)OC2=O)c(C(C)(C)C)cc1OS(=O)(=O)c1ccccc1-c1cccs1` (centres undefined) [4-({6-[2-(4-aminophenyl)ethyl]-4-hydroxy-2-oxo-6-(propan-2-yl)-5,6-dihydro-2H-pyran-3-yl}sulfanyl)-5-tert-butyl-2-methylphenyl 2-(thiophen-2-yl)benzene-1-sulfonate], the pIC50 in experiment [2] is 7.73.

Consider `Cc1cc(SC2C(=O)CC(CCc3ccc(N)cc3)(C(C)C)OC2=O)c(C(C)(C)C)cc1OS(=O)(=O)c1cccc(-c2cccnc2)c1` (centres undefined) [4-({6-[2-(4-aminophenyl)ethyl]-4-hydroxy-2-oxo-6-(propan-2-yl)-5,6-dihydro-2H-pyran-3-yl}sulfanyl)-5-tert-butyl-2-methylphenyl 3-(pyridin-3-yl)benzene-1-sulfonate], for which the negative-log IC50 (pIC50) in experiment [2] was 8.39.

As to `Cc1cc(SC2C(=O)CC(CCc3ccc(N)cc3)(C(C)C)OC2=O)c(C(C)(C)C)cc1OS(=O)(=O)N(C)C` (centres undefined) [4-({6-[2-(4-aminophenyl)ethyl]-4-hydroxy-2-oxo-6-(propan-2-yl)-5,6-dihydro-2H-pyran-3-yl}sulfanyl)-5-tert-butyl-2-methylphenyl N,N-dimethylsulfamate], the negative-log IC50 (pIC50) in experiment [1] was 8.41.

For the molecule `CCNS(=O)(=O)Oc1cc(C(C)(C)C)c(SC2C(=O)CC(CCc3ccc(N)cc3)(C(C)C)OC2=O)cc1C` (centres undefined) [4-({6-[2-(4-aminophenyl)ethyl]-4-hydroxy-2-oxo-6-(propan-2-yl)-5,6-dihydro-2H-pyran-3-yl}sulfanyl)-5-tert-butyl-2-methylphenyl N-ethylsulfamate], in experiment [1], the pIC50 was 8.37.

As to `Cc1cc(SC2C(=O)CC(CCc3ccc(O)cc3)(C(C)C)OC2=O)c(C(C)(C)C)cc1OS(=O)(=O)c1nccn1C` (centres undefined) [5-tert-butyl-4-({4-hydroxy-6-[2-(4-hydroxyphenyl)ethyl]-2-oxo-6-(propan-2-yl)-5,6-dihydro-2H-pyran-3-yl}sulfanyl)-2-methylphenyl 1-methyl-1H-imidazole-2-sulfonate], in experiment [2], the pIC50 is 8.62.

`Cc1cc(SC2C(=O)CC(CCc3ccc(O)cc3)(C(C)C)OC2=O)c(C(C)(C)C)cc1OS(C)(=O)=O` (centres undefined) [5-tert-butyl-4-({4-hydroxy-6-[2-(4-hydroxyphenyl)ethyl]-2-oxo-6-(propan-2-yl)-5,6-dihydro-2H-pyran-3-yl}sulfanyl)-2-methylphenyl methanesulfonate]: the pIC50 in experiment [2] is 8.66.

`CCCC1(CCc2ccc(O)cc2)CC(=O)C(Sc2cc(C)c(OS(=O)(=O)c3nccn3C)cc2C(C)(C)C)C(=O)O1` (centres undefined) [5-tert-butyl-4-({4-hydroxy-6-[2-(4-hydroxyphenyl)ethyl]-2-oxo-6-propyl-5,6-dihydro-2H-pyran-3-yl}sulfanyl)-2-methylphenyl 1-methyl-1H-imidazole-2-sulfonate] showed a pIC50 in experiment [2] of 8.66.

Molecule `Cc1cc(SC2C(=O)CC(CCc3ccc(O)cc3)(CC(C)C)OC2=O)c(C(C)(C)C)cc1OS(=O)(=O)c1nccn1C` (centres undefined) [5-tert-butyl-4-({4-hydroxy-6-[2-(4-hydroxyphenyl)ethyl]-6-(2-methylpropyl)-2-oxo-5,6-dihydro-2H-pyran-3-yl}sulfanyl)-2-methylphenyl 1-methyl-1H-imidazole-2-sulfonate] gave a pIC50 in experiment [2] of 8.44.

The molecule `Cc1cc(SC2C(=O)CC(C)(CCc3ccc(O)cc3)OC2=O)c(C(C)(C)C)cc1OS(=O)(=O)c1nccn1C` (centres undefined) [5-tert-butyl-4-({4-hydroxy-6-[2-(4-hydroxyphenyl)ethyl]-6-methyl-2-oxo-5,6-dihydro-2H-pyran-3-yl}sulfanyl)-2-methylphenyl 1-methyl-1H-imidazole-2-sulfonate] gave a pIC50 in experiment [2] of 8.70.

In turn, `Cc1cc(SC2C(=O)CC(CCc3ccc(O)cc3)(C3CCCCC3)OC2=O)c(C(C)(C)C)cc1OS(=O)(=O)c1nccn1C` (centres undefined) [5-tert-butyl-4-({6-cyclohexyl-4-hydroxy-6-[2-(4-hydroxyphenyl)ethyl]-2-oxo-5,6-dihydro-2H-pyran-3-yl}sulfanyl)-2-methylphenyl 1-methyl-1H-imidazole-2-sulfonate] showed a negative logarithm of the IC50 (pIC50) in experiment [2] of 8.10.

`Cc1cc(SC2C(=O)CC(CCc3ccccc3)(C(C)C)OC2=O)c(C(C)(C)C)cc1OS(=O)(=O)c1nccn1C` (centres undefined) [5-tert-butyl-4-{[4-hydroxy-2-oxo-6-(2-phenylethyl)-6-(propan-2-yl)-5,6-dihydro-2H-pyran-3-yl]sulfanyl}-2-methylphenyl 1-methyl-1H-imidazole-2-sulfonate] had a pIC50 in experiment [2] of 8.52.

Regarding `CCNS(=O)(=O)Oc1cc(C(C)(C)C)c(SC2C(=O)CC(CCc3ccc(O)cc3)(C(C)C)OC2=O)cc1C` (centres undefined) [6-Alkyl-5,6-Dihydropyran-2-one 20], the pIC50 in experiment [1] is 8.31.

As for `Cc1cc(SC2C(=O)C[C@](CCc3ccc(O)cc3)(C(C)C)OC2=O)c(C(C)(C)C)cc1N` (stereo partly drawn) [(6R)-3-[(4-amino-2-tert-butyl-5-methylphenyl)sulfanyl]-4-hydroxy-6-[2-(4-hydroxyphenyl)ethyl]-6-(propan-2-yl)-5,6-dihydro-2H-pyran-2-one], in experiment [2], the negative logarithm of the Ki (pKi) (as a rule, the Ki on a negative log10 scale, so that one unit is a factor of ten) was 7.89.

Molecule `Cc1cc(SC2C(=O)CC(CCc3ccccc3)(C(C)C)OC2=O)c(C(C)(C)C)cc1NS(=O)(=O)c1nccn1C` (centres undefined) [N-(5-tert-butyl-4-{[4-hydroxy-2-oxo-6-(2-phenylethyl)-6-(propan-2-yl)-5,6-dihydro-2H-pyran-3-yl]sulfanyl}-2-methylphenyl)-1-methyl-1H-imidazole-2-sulfonamide] showed a negative-log IC50 (pIC50) in experiment [2] of 8.72.

`Cc1cc(SC2C(=O)CC(CCc3ccccc3)(C(C)C)OC2=O)c(C(C)(C)C)cc1NS(=O)(=O)c1ccc(C#N)cc1` (centres undefined) [N-(5-tert-butyl-4-{[4-hydroxy-2-oxo-6-(2-phenylethyl)-6-(propan-2-yl)-5,6-dihydro-2H-pyran-3-yl]sulfanyl}-2-methylphenyl)-4-cyanobenzene-1-sulfonamide] gave a pIC50 in experiment [2] (pH 6.2, 37 °C) of 8.04.

As for `Cc1cc(SC2C(=O)CC(CCc3ccccc3)(C(C)C)OC2=O)c(C(C)(C)C)cc1NS(=O)(=O)c1ccc(C(F)(F)F)cn1` (centres undefined) [N-(5-tert-butyl-4-{[4-hydroxy-2-oxo-6-(2-phenylethyl)-6-(propan-2-yl)-5,6-dihydro-2H-pyran-3-yl]sulfanyl}-2-methylphenyl)-5-(trifluoromethyl)pyridine-2-sulfonamide], the negative logarithm of the Ki (pKi) in experiment [2] is 8.98.

With `Cc1cc(SC2C(=O)C[C@](CCc3ccccc3)(C(C)C)OC2=O)c(C(C)(C)C)cc1NS(=O)(=O)c1ccc(C(F)(F)F)cn1` (stereo partly drawn) [N-(5-tert-butyl-4-{[(6R)-4-hydroxy-2-oxo-6-(2-phenylethyl)-6-(propan-2-yl)-5,6-dihydro-2H-pyran-3-yl]sulfanyl}-2-methylphenyl)-5-(trifluoromethyl)pyridine-2-sulfonamide], the pKi in experiment [2] is 8.19.

In experiment [2], `Cc1cc(SC2C(=O)C[C@](CCc3ccc(O)cc3)(C(C)C)OC2=O)c(C(C)(C)C)cc1NS(=O)(=O)c1ccc(C(F)(F)F)cn1` (stereo partly drawn) [N-(5-tert-butyl-4-{[(6R)-4-hydroxy-6-[2-(4-hydroxyphenyl)ethyl]-2-oxo-6-(propan-2-yl)-5,6-dihydro-2H-pyran-3-yl]sulfanyl}-2-methylphenyl)-5-(trifluoromethyl)pyridine-2-sulfonamide] showed a pKi of 8.02.

In turn, `Cc1cc(SC2C(=O)CC(C)(CCc3ccc(O)cc3)OC2=O)c(C(C)(C)C)cc1NS(=O)(=O)c1nccn1C` (centres undefined) [N-[5-tert-butyl-4-({4-hydroxy-6-[2-(4-hydroxyphenyl)ethyl]-6-methyl-2-oxo-5,6-dihydro-2H-pyran-3-yl}sulfanyl)-2-methylphenyl]-1-methyl-1H-imidazole-2-sulfonamide] showed a negative logarithm of the IC50 (pIC50) in experiment [2] (pH 6.2, 37 °C) of 8.72.

In the case of `Cc1cc(SC2C(=O)CC(C)(CCc3ccc(O)cc3)OC2=O)c(C(C)(C)C)cc1NS(=O)(=O)c1cccc(-c2cccs2)c1` (centres undefined) [N-[5-tert-butyl-4-({4-hydroxy-6-[2-(4-hydroxyphenyl)ethyl]-6-methyl-2-oxo-5,6-dihydro-2H-pyran-3-yl}sulfanyl)-2-methylphenyl]-3-(thiophen-2-yl)benzene-1-sulfonamide], the pIC50 in experiment [2] (pH 6.2, 37 °C) is 8.20.
